The values that follow are results of earlier work, collected in patent US20030139355A1, “Medicine for orthopaedic surgical application and a treating method using thereof” (priority 2001, published 2003).

Molecules are shown by their SMILES.

The subject of one data set is selectins. The note with it: in vitro; J. Biol. Chem. 1994.
Data set [1] concerns ischemia reperfusion disorder in liver. The conditions noted are these: literature reports.

For `CC1(C)[C@@H](O[C@H]2O[C@H](C(=O)O)[C@@H](O)[C@H](O)[C@H]2O[C@@H]2O[C@H](C(=O)O)[C@@H](O)[C@H](O)[C@H]2O)CC[C@]2(C)[C@H]3C(=O)C=C4[C@@H]5C[C@@](C)(C(=O)O)CC[C@]5(C)CC[C@@]4(C)[C@]3(C)CC[C@@H]12` [glycyrrhizin], the “Binding between Sialyl-Lewis X and selectins” value in the data set with selectins is “prevents binding between Sialyl-Lewis X and selectins”. For the same compound, in data set [1], the “Inhibitory effects on ischemia reperfusion disorder in liver” value is “effectively exhibits inhibitory effects”.
